{"source": "patent US8779001B2", "about": "“Stat3 inhibitors” (The United States of America National Institute of Health …, priority 2008, dated 2014)", "key": {"[1]": {"target": "T1, Stat1 (Homo sapiens, UniProt P42224)", "T1 construct": "endogenous in cells; host or cells: HepG2", "T1 sequence (P42224 1-750)": "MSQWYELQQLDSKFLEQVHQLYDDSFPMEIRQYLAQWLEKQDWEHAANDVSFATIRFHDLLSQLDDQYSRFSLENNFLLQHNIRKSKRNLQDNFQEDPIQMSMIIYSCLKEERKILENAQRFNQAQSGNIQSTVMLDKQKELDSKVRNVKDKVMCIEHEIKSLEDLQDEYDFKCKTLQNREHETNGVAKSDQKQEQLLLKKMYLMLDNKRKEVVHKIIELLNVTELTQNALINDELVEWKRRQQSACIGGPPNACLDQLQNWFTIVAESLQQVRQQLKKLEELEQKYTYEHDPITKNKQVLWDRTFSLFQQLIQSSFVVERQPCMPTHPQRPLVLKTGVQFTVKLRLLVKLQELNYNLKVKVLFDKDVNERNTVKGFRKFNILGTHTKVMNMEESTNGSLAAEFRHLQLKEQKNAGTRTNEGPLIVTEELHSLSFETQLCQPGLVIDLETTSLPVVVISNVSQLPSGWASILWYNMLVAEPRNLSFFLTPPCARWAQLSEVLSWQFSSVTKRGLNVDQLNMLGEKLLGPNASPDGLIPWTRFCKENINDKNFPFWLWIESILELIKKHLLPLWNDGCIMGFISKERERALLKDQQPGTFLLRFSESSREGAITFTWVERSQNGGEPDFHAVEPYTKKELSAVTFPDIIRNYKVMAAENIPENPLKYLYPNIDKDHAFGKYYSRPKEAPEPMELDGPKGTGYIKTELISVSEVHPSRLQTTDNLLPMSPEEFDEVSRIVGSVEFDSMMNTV", "assay": "Immunoblot assay of IFN-γ-stimulated Stat1 phosphorylation in HepG2 cells", "assay_type": "cell-based", "details": "HepG2, compound 300 μM, 1 hour, IFN-γ 30 ng/ml 30 min", "protocol": "HepG2 cells were pretreated with DMSO alone or DMSO containing each of the compounds at a concentration of 300 μM for 60 min. Cells were then stimulated with IFN-γ (30 ng/ml) for 30 min. Protein extracts of cells were separated by SDS-PAGE and immunoblotted serially with antibodies to pStat1, total Stat1 and β-actin. Blots were stripped between each immunoblotting. The results shown are representative of 2 or more experiments.\nImmunoblot assay. The human hepatocellular carcinoma cell line (HepG2) was grown in 6-well plates under standard conditions. Cells were pretreated with compounds (0, 1, 3, 10, 30, 100 and 300 uM) for 1 hour then stimulated under optimal conditions with either interferon gamma (IFN-γ; 30 ng/ml for 30 min) to activate Stat1 or interleukin-6 (IL-6; 30 ng/ml for 30 min) to activate Stat3 (30-31). Cultures were then harvested and proteins extracted using high-salt buffer, as described (Shao et al., 2006). Briefly, extracts were mixed with 2× sodium dodecyl sulfate (SDS) sample buffer (125 mmol/L Tris-HCL pH 6.8; 4% SDS; 20% glycerol; 10% 2-mercaptoethanol) at a 1:1 ratio and heated for 5 minutes at 100° C. Proteins (20 μg) were separated by 7.5% SDS-PAGE and transferred to polyvinylidene fluoride (PVDF) membrane (Millipore, Waltham, Mass.) and immunoblotted. Prestained molecular weight markers (Biorad, Hercules, Calif.) were included in each gel. Membranes were probed serially with antibody against Stat1 pY^701 or Stat3 pY^705 followed by antibody against Stat1 or Stat3 (Transduction labs, Lexington, Ky.) then antibody against β-actin (Abeam, Cambridge, Mass.). Membranes were stripped between antibody probing using Restore™ Western Blot Stripping Buffer (Thermo Fisher Scientific Inc., Waltham, Mass.) per the manufacturer's instructions. Horseradish peroxidase-conjugated goat-anti-mouse IgG was used as the secondary antibody (Invitrogen Carlsbad, Calif.) and the membranes were developed with enhanced chemiluminescence (ECL) detection system (Amersham Life Sciences Inc.; Arlington Heights, Ill.).\nWhile Stat3 contributes to oncogenesis, in part, through inhibition of apoptosis, Stat1 is anti-oncogenic; it mediates the apoptotic effects of interferons and contributes to tumor surveillance (Kaplan et al., 1998; Ramana et al., 2000). Consequently, compounds that target Stat3 while sparing Stat1, leaving its anti-oncogenic functions unopposed, may result in a synergistic anti-tumor effect. […] Thus, five of the six exemplary compounds identified were selective and inhibited ligand-stimulated phosphorylation of Stat3 but not Stat1.\nEXP IIC. Ligand-mediated pStat3 and pStat1 inhibition assays. […] Briefly, human hepatocellular carcinoma cells (HepG2) are grown in 6-well plates and pretreated with compounds (0, 0.1, 0.3, 1, 3, 10, 30, 100 μM) for 1 hour then stimulated under optimal conditions with either interleukin-6 (IL-6; 30 ng/ml for 30 min) to activate Stat3 or interferon gamma (IFN-γ, 30 ng/ml for 30 min) to activate Stat1. Cells are harvested and proteins extracted using high-salt buffer, mixed with 2× sodium dodecyl sulfate (SDS) sample buffer (125 mmol/L Tris-HCL pH 6.8; 4% SDS; 20% glycerol; 10% 2-mercaptoethanol) at a 1:1 ratio then heated for 5 minutes at 100° C. Proteins (20 μg) are separated by 7.5% SDS-PAGE and transferred to polyvinylidene fluoride (PVDF) membrane (Millipore, Waltham, Mass.) and immunoblotted. Membranes are probed serially with antibody against Stat1 pY701 or Stat3 pY705 followed by antibody against Stat1 or Stat3 (Transduction labs, Lexington, Ky.) then antibody against β-actin (Abcam, Cambridge, Mass.). Membranes are stripped between antibody probings using Restore™ Western Blot Stripping Buffer (Thermo Fisher Scientific Inc., Waltham, Mass.) per the manufacturer's instructions. […]"}, "[2]": {"system": "breast cancer cell lines", "assay": "Breast cancer cell line apoptosis assay, statements over several cell lines", "assay_type": "cell-based, human", "details": "five breast cancer cell lines", "protocol": "MDA-MB-468 (panel A), MDA-MB-231 (panel B), MDA-MB-435 (panel C), MCF7 (panel D) and MDA-MB-453 (panel E) were seeded in 12-well plates, grown overnight then treated with the indicated compound for 24 hr. Cells were centrifuged and the supernatants assayed for nucleosome levels by ELISA.\nHuman breast carcinoma cell lines MDA-MB-468, MDA-MB-231, MBA-MD-435 and MCF7 were kindly provided by Dr. Powel H. Brown (Breast Cancer Center, Baylor College of Medicine). Breast cancer cell line, MDA-MB-453 was kindly provided by Dr. Shou Jiang (Breast Cancer Center, Baylor College of Medicine). […] Cells were seeded at 2,500 cells/cm^2 into 12-well plates. […] At 24 hours, treatment was terminated by removing the medium from each well. […] The percent maximum nucleosome level was calculated by dividing the nucleosome level by the maximum nucleosome level achieved in the assay and multiplying by 100."}, "[3]": {"target": "Stat3 (Homo sapiens, UniProt P40763)", "sequence (P40763 whole entry)": "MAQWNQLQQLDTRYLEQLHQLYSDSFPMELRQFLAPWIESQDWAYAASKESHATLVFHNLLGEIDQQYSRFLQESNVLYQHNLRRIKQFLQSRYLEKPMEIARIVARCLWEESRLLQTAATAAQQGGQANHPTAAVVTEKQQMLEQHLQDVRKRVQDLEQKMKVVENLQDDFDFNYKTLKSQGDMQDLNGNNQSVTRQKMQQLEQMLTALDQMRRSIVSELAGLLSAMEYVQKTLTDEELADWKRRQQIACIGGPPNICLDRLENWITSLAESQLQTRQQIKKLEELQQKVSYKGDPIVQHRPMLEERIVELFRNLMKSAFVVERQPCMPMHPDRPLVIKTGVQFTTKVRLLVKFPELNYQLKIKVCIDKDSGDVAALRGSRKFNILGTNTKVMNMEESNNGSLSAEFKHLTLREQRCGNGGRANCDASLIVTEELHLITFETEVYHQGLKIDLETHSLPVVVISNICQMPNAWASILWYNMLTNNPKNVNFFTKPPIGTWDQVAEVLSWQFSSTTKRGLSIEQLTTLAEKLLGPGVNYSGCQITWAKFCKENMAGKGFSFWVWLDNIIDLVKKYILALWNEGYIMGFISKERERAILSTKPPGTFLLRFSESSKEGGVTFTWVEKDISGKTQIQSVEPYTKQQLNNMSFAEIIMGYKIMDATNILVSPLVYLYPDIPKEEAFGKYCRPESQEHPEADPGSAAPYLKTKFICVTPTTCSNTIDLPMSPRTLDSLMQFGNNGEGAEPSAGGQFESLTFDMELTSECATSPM", "details": "fluorescence polarization, Coleman et al., 2005; read-out: IC50 inhibition of Stat3 binding to pY-peptide; cited from earlier work"}, "[4]": {"system": "triple negative human breast cancer xenograft", "assay": "Two-day pilot triple-negative human breast cancer xenograft experiment, MSFE measured", "assay_type": "in vivo, SCID Beige mice", "details": "250 mcg, two days of treatment, P<0.05", "from_the_text": "The mice were sacrificed after two days and MSFE measured.\nA tumor line derived from a “triple negative” (ER-negative, PgR-negative, and HER-2 negative) human breast cancer biopsy specimen was transplanted into immunocompromised SCID Beige mice. The animals (n=3) received two doses of vehicle control, 2 different doses of Cpd 188 (125 or 250 mcg), a G-quartet oligodeoxynucleotide (GQ-ODN, T40214; GQ-I) previously determined to target Stat3 (Jing et al., 2004) and a control non-specific ODN (GQ-II) each at two doses (125 or 250 mcg). The animals were sacrificed after only two days of treatment, and MSFE determined."}, "[5]": {"system": "breast cancer cells with constitutively activated Stat3", "details": "Schust et al., 2006; cited from earlier work"}, "[6]": {"target": "T2, Stat3:hSIE complexes (Homo sapiens, UniProt P40763)", "T2 construct": "endogenous in cells; host or cells: HepG2", "T2 sequence (P40763 2-770 limits assumed, one chain of several)": "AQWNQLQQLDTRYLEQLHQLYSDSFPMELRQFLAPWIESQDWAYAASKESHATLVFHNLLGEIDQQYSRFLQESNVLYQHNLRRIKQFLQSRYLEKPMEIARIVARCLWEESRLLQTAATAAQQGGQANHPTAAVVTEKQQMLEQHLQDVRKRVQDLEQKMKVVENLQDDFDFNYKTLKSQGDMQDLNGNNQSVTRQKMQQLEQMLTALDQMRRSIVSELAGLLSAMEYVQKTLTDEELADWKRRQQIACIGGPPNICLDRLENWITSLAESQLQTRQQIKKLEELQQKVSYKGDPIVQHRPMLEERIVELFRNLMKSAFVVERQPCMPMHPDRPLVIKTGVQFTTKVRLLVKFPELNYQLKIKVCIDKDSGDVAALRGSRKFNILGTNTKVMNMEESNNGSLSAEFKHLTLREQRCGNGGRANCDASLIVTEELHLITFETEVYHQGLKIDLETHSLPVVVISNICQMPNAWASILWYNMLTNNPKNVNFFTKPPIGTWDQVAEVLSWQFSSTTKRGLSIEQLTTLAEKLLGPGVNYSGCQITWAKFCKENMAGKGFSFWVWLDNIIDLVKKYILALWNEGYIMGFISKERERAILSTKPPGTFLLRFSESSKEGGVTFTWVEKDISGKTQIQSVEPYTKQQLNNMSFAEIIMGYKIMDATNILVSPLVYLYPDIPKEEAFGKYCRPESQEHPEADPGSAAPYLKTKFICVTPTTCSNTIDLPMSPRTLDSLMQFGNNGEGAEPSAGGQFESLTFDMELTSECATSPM", "assay": "Electrophoretic mobility shift assay (EMSA) of Stat3 DNA binding", "assay_type": "biochemical", "details": "extracts of IL-6-stimulated HepG2 cells, compound 300 μM, 60 minutes at 37° C", "protocol": "Electrophoretic mobility shift assays were performed using whole-cell extracts prepared from HepG2 cells without and with stimulation with IL-6 (30 ng/ml) for 30 min. Protein (20 μg) was incubated with radiolabeled duplex oligonucleotide (hSIE) and DMSO without or with the indicated compounds (300 uM) for 60 minutes at 37° C. then separated by PAGE. The gel was dried and autoradiographed; the portion of the gel corresponding to the Stat3-bound hSIE band is shown. Data shown are representative of 2 studies.\nElectrophoretic Mobility Shift Assay (EMSA): EMSA was performed using the hSIE radiolabeled duplex oligonucleotide as a probe as described (Tweardy et al., 1995). Briefly, high salt extracts were prepared from HepG2 cells incubated without or with IL-6 (30 ng/ml) for 30 minutes. Protein concentration was determined by Bradford Assay and 20 ug of extract was incubated with compound (300 uM) for 60 minutes at 37° C. […] Gels were dried and autoradiographed.\nOnce in the nucleus, Stat3 dimers bind to specific DNA elements to activate and, in some instances, repress gene transcription. […] Compounds that bind to the phosphopeptide-binding site of Stat3 might be expected to do the same. […]"}}}
{"compound": "CCOc1cc(C=C2C(=O)c3ccccc3C2=O)cc(Cl)c1OCc1cccc(C(=O)O)c1", "note": "[Cpd3-2, 3-({2-chloro-4-[(1,3-dioxo-1,3-dihydro-2H-inden-2-ylidene)methyl]-6-ethoxyphenoxy}methyl)benzoic acid]", "values": [{"measurement": "effect on IFN-γ-stimulated Stat1 phosphorylation", "setting": "[1]", "result": "did not"}, {"measurement": "induction of apoptosis of any of the breast cancer cell lines tested", "setting": "[2]", "result": "neither Cpd3-2 nor Cpd3-7 induced apoptosis"}]}
{"compound": "hydrocinnamoyl-Tyr(PO3H2)-Leu-cis-3,4-methanoPro-Gln-NHB", "values": [{"measurement": "IC50", "setting": "[3]", "result": 125, "unit": "nM"}]}
{"compound": "CCN1C(=O)C(=Cc2ccc(-c3cc(C(=O)O)ccc3Cl)o2)C(=O)N(CC)C1=S", "note": "[Cpd30-12, 4-chloro-3-{5-[(1,3-diethyl-4,6-dioxo-2-thioxotetrahydro-5(2H)-pyrimidinylidene)methyl]-2-furyl}benzoic acid]", "values": [{"measurement": "effect on IFN-γ-stimulated Stat1 phosphorylation", "setting": "[1]", "result": "blocked Stat1 phosphorylation"}]}
{"compound": "O=C(O)CSc1cc(NS(=O)(=O)c2ccc(C(=O)O)cc2)c2ccccc2c1O", "note": "[Cpd188, 4-[({3-[(carboxymethyl)thio]-4-hydroxy-1-naphthyl}amino)sulfonyl]benzoic acid]", "values": [{"measurement": "effect on IFN-γ-stimulated Stat1 phosphorylation", "setting": "[1]", "result": "did not"}, {"measurement": "reduction in MSFE compared to control", "setting": "[4]", "result": "significant reduction in MSFE"}]}
{"compound": "O=[N+]([O-])c1ccc2c(c1)S(=O)(=O)C=C2", "note": "[Stattic]", "values": [{"measurement": "concentration range inducing apoptosis / Stat3 inhibitory effects", "setting": "[5]", "result": "5 to 20", "unit": "µM"}]}
{"compound": "O=C(O)c1ccc(C=CC(=O)c2ccc3c(c2)OCCO3)cc1", "note": "[Cpd3, 4-[3-(2,3-dihydro-1,4-benzodioxin-6-yl)-3-oxo-1-propen-1-yl]benzoic acid]", "values": [{"measurement": "effect on IFN-γ-stimulated Stat1 phosphorylation", "setting": "[1]", "result": "did not"}, {"measurement": "effect on Stat3:hSIE band intensity (EMSA)", "setting": "[6]", "result": "reduced the amount of hSIE shifted by half or greater"}]}
{"compound": "CCN1C(=O)C(=Cc2ccc(-c3ccc(C(=O)O)cc3)o2)SC1=S", "note": "[Cpd30, 4{5-[(3-ethyl-4-oxo-2-thioxo-1,3-thiazolidin-5-ylidene)methyl]-2-furyl}benzoic acid]", "values": [{"measurement": "effect on IFN-γ-stimulated Stat1 phosphorylation", "setting": "[1]", "result": "did not"}]}
{"compound": "COC(=O)Cc1c(C)c2ccc(OCc3ccc(C(=O)OC)cc3)c(C)c2oc1=O", "note": "[Cpd3-7, methyl 4-({[3-(2-methyoxy-2-oxoethyl)-4,8-dimethyl-2-oxo-2H-chromen-7-yl]oxy}methyl)benzoate]", "values": [{"measurement": "effect on IFN-γ-stimulated Stat1 phosphorylation", "setting": "[1]", "result": "did not"}, {"measurement": "effect on Stat3:hSIE band intensity (EMSA)", "setting": "[6]", "result": "reduced the amount of hSIE shifted by half or greater"}, {"measurement": "induction of apoptosis of any of the breast cancer cell lines tested", "setting": "[2]", "result": "neither Cpd3-2 nor Cpd3-7 induced apoptosis"}]}
